Measurements: PubChem BioAssay (NCI)
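A five-concentration, 48-hour dose response in 96-well plates underlies each endpoint, interpolated linearly between surrounding concentrations. Definition used: TGI = concentration required for complete inhibition of growth.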

Columns and labels:
Test in all cases: growth of human tumour cells (NCI), 48 h
A498 renal = system: A498 renal
OVCAR-4 ovarian = system: OVCAR-4 ovarian
SR leukemia = system: SR leukemia
BT-549 breast = system: BT-549 breast
NCI-H226 lung = system: NCI-H226 lung
UACC-62 melanoma = system: UACC-62 melanoma
HT29 colon = system: HT29 colon
RPMI-8226 leukemia = system: RPMI-8226 leukemia
MDA-MB-435 = system: MDA-MB-435
SNB-19 CNS = system: SNB-19 CNS

Compound | TGI (A498 renal) [µM] | TGI (OVCAR-4 ovarian) [µM] | TGI (SR leukemia) [µM] | TGI (BT-549 breast) [µM] | TGI (NCI-H226 lung) [µM] | TGI (UACC-62 melanoma) [µM] | TGI (HT29 colon) [µM] | TGI (RPMI-8226 leukemia) [µM] | TGI (MDA-MB-435) [µM] | TGI (SNB-19 CNS) [µM]
CC(C)C[S+]1C2=C([O-])CC(C)(C)CC2=Nc2ccccc21 (centres undefined) | > 100 | > 100 | 75.8 | > 100 | > 100 | > 100 | > 100 | > 100 | > 100 | > 100
Cc1ccc(S(=O)(=O)NC(=O)Nc2c(S(N)(=O)=O)cc(S(N)(=O)=O)c(Cl)c2Cl)cc1 | > 100 | > 100 | > 100 | > 100 | > 100 | > 100 | > 100 | > 100 | > 100 | > 100
CC(=O)Nc1ccc(NC(=O)CC(=O)Nc2ccc(NC(C)=O)cc2)cc1 | > 100 | > 100 | > 100 | > 100 | > 100 | 23.4 | > 100 | > 100 | > 100 | > 100
CN1C(=O)c2ccccc2C(O)(c2ccccc2)C1(O)c1ccccc1 (centres undefined) | > 100 | > 100 | > 100 | > 100 | > 100 | > 100 | > 100 | > 100 | > 100 | > 100
COc1ccc(C=Nc2ccc(-c3nc4ccccc4s3)cc2)cc1OC | 46.2 | > 100 | > 100 | > 100 | 85.4 | 47.2 | > 100 | > 100 | > 100 | > 100
CC(=O)N1C(C(=O)NN2CCOCC2)CSC1c1ccccc1 (centres undefined) | > 100 | > 100 | > 100 | > 100 | > 100 | > 100 | > 100 | > 100 | > 100 | > 100
CCCNC1=C2C[C@@H](C)C[C@@H](OC)[C@@H](OC(=O)CCCN)[C@H](C)/C=C(\C)[C@@H](OC(N)=O)[C@H](OC)/C=C\C=C(/C)C(=O)NC(=CC1=O)C2=O | 37.1 | 39.4 | > 23.8 | 29.4 | 39.8 | 29.4 | 22.9 | 29.1 | 32.2 | 29.7
COc1ccccc1N1CCN(CCCCNC(=O)c2ccc([N+](=O)[O-])o2)CC1 | 22.8 | 28.9 | > 58.3 | 14.7 | 29.4 | 18.4 | 9.92 | > 68.4 | 12 | 25.5
CN1C(=O)N(C)C2(CCN(CC(CC3OCCO3)c3ccc(F)cc3)CC2)C1=O (centres undefined) | > 100 | > 100 | > 100 | > 100 | > 100 | > 100 | > 100 | > 100 | > 100 | > 100
c1ccc(-c2csc3c2-n2cccc2C3N2CCCC2)cc1 (centres undefined) | > 100 | > 100 | > 100 | 34.4 | > 100 |  | > 100 | > 100 | > 100 | > 100
C[C@@H]1C[C@H]2OC(=O)[C@@]3(C)CCC[C@@](C)([C@@H]23)[C@@]1(O)CCc1ccoc1 | > 100 | > 100 | > 88.9 | > 100 | > 100 | > 100 | > 100 | > 100 | > 100 | > 100
COC(=O)[C@H](CNC(=O)/C=C/c1ccc(OC(C)=O)c(OC(C)=O)c1)NC(=O)/C=C/c1ccc(OC(C)=O)c(OC(C)=O)c1 | > 100 | > 100 | > 100 | > 100 | > 100 | > 100 | > 100 | > 100 | > 100 | > 100
O=c1oc2ccc([N+](=O)[O-])cc2nc1/C=C(\O)c1ccccc1 | > 100 | > 100 | > 100 | > 100 | > 100 | > 100 | > 100 | > 100 | > 100 | > 100
Cc1sc2c(c1C)C(=O)c1cccn1-2 | > 100 | > 100 | > 100 | > 100 | > 100 | > 100 | > 100 | > 100 | > 100 | > 100
N/C(=N\N=C\c1cc2ccccc2s1)c1cnccn1 | > 100 | > 100 | > 100 | > 100 | > 100 | > 100 | > 100 | > 100 | > 100 | > 100
C=C1CC[C@@]2(C)[C@@H]([C@@H]1C)[C@H]1CC[C@@H]3[C@@]4(C)CC[C@H](O)C(C)(C)[C@@H]4CC[C@@]3(C)[C@]1(C)C[C@@H]2O | 4.35 | 6.53 | > 100 | 34.6 | 40.1 | 28.2 | 19.6 | > 100 | 26 | 8.44
